Results reported in ChEMBL document CHEMBL5331051, “Cationic, amphipathic small molecules based on a triazine-piperazine-triazine scaffold as a new class of antimicrobial agents” (Eur J Med Chem, 2022).
Values after ≈ are worked out from the molar mass of the structure shown. Active and inactive are the calls of the source. The rule behind the calls is not given here.

Tests used:
Escherichia coli [1] = assay: Antibacterial activity against Escherichia coli KCTC 1682 strain assessed as bacterial growth inhibition measured at 18 to 24 hrs by microdilution assay; assay type: functional; details: time 18-24 hrs
Escherichia coli [2] = assay: Antibacterial activity against Escherichia coli KCTC 1682 strain assessed as bacterial growth inhibition measured at 18 to 24 hrs in presence of 20% human serum by microdilution assay; assay type: functional; details: time 18-24 hrs
Cell membrane [3] = assay: Induction of cell membrane depolarization in Staphylococcus aureus assessed as increase in fluorescence intensity at 2 times MIC by SYTOX green staining based analysis
Staphylococcus aureus [4] = assay: Synergistic antibacterial activity against multidrug-resistant Staphylococcus aureus CCARM 3089 strain assessed as fractional inhibitory concentration index in presence of oxacillin by checkerboard assay; assay type: functional
[5] = tested on: Staphylococcus epidermidis; assay: Antibacterial activity against Staphylococcus epidermidis KCTC 1917 strain assessed as bacterial growth inhibition measured at 18 to 24 hrs by microdilution assay; assay type: functional; details: time 18-24 hrs
Staphylococcus aureus [6] = assay: Antibacterial activity against Staphylococcus aureus KCTC 1621 strain assessed as bacterial growth inhibition measured at 18 to 24 hrs in presence of 150 mM NaCl by microdilution assay; assay type: functional; details: time 18-24 hrs
Staphylococcus aureus [7] = assay: Synergistic antibacterial activity against multidrug-resistant Staphylococcus aureus CCARM 3089 strain assessed as oxacillin fractional inhibitory concentration by checkerboard assay; assay type: functional
RAW264.7 [8] = assay: Antiinflammatory activity in LPS-induced mouse RAW264.7 cells assessed as reduction in TNF alpha level at 20 ug/ml measured after 72 hrs by ELISA assay relative to control; assay type: functional
Staphylococcus aureus [9] = assay: Antibacterial activity against Staphylococcus aureus KCTC 1621 strain assessed as bacterial growth inhibition measured at 18 to 24 hrs in presence of 4.5 mM KCl by microdilution assay; assay type: functional; details: time 18-24 hrs
Cell membrane [10] = assay: Induction of cell membrane damage in Escherichia coli KCTC 1682 assessed as increase in fluorescent intensity at 2 times MIC incubated for 30 mins by PI staining based flow cytometry assay (reference value: 9.79 %); assay type: subcellular
RAW264.7 [11] = assay: Antiinflammatory activity in LPS-induced mouse RAW264.7 cells assessed as reduction in iNOS mRNA expression level at 5 ug/ml measured after 18 hrs by RT-PCR assay relative to control; assay type: functional, cell-based; details: dose 5.0 µg/ml
Staphylococcus aureus [12] = assay: Synergistic antibacterial activity against methicillin-resistant Staphylococcus aureus CCARM 3089 strain assessed as bacterial growth inhibition in presence of oxacillin by checkerboard assay; assay type: functional
Escherichia coli [13] = assay: Antibacterial activity against Escherichia coli KCTC 1682 strain assessed as bacterial growth inhibition measured after 6 hrs in presence of chymotrypsin by radial diffusion assay; assay type: functional, organism-based
Staphylococcus aureus [14] = assay: Antibacterial activity against methicillin-resistant Staphylococcus aureus CCARM 3089 strain assessed as bacterial growth inhibition by checkerboard assay; assay type: functional
Pseudomonas aeruginosa [15] = assay: Synergistic antibacterial activity against multidrug-resistant Pseudomonas aeruginosa CCARM 2095 strain assessed as fractional inhibitory concentration index in presence of ciprofloxacin by checkerboard assay; assay type: functional
Staphylococcus aureus [16] = assay: Additive antibacterial activity against multidrug-resistant Staphylococcus aureus CCARM 3089 strain assessed as fractional inhibitory concentration index in presence of oxacillin by checkerboard assay; assay type: functional
Escherichia coli [17] = assay: Antibacterial activity against Escherichia coli KCTC 1682 strain assessed as bacterial growth inhibition measured at 18 to 24 hrs in presence of 6 uM NH4Cl by microdilution assay; assay type: functional; details: time 18-24 hrs
Staphylococcus aureus [18] = assay: Antibacterial activity against Staphylococcus aureus KCTC 1621 strain assessed as bacterial growth inhibition measured at 18 to 24 hrs in presence of 2.5 mM CaCl2 by microdilution assay; assay type: functional; details: time 18-24 hrs
Pseudomonas aeruginosa [19] = assay: Antibacterial activity against multidrug-resistant Pseudomonas aeruginosa CCARM 2109 strain assessed as bacterial growth inhibition measured at 18 to 24 hrs by microdilution assay; assay type: functional; details: time 18-24 hrs
Pseudomonas aeruginosa [20] = assay: Synergistic antibacterial activity against multidrug-resistant Pseudomonas aeruginosa CCARM 2095 strain assessed as ciprofloxacin MIC by checkerboard assay; assay type: functional
Escherichia coli [21] = assay: Antibacterial activity against Escherichia coli KCTC 1682 strain assessed as bacterial growth inhibition measured at 18 to 24 hrs in presence of 1 mM MgCl2 by microdilution assay; assay type: functional; details: time 18-24 hrs
DNA = assay: Binding affinity to plasmid DNA (unknown origin) assessed as retardation of DNA migration at 4 to 8 ug/ml incubated for 1 hr by agarose gel electrophoresis method; assay type: nucleic-acid assay; details: dose 4-8 µg/ml
Staphylococcus aureus [22] = assay: Additive antibacterial activity against methicillin-resistant Staphylococcus aureus CCARM 3089 strain assessed as chloramphenicol MIC by checkerboard assay; assay type: functional
Staphylococcus aureus [23] = assay: Antibacterial activity against Staphylococcus aureus KCTC 1621 strain assessed as bacterial growth inhibition measured at 18 to 24 hrs in presence of 20% human serum by microdilution assay; assay type: functional; details: time 18-24 hrs
Escherichia coli [24] = assay: Antibacterial activity against Escherichia coli KCTC 1682 strain assessed as bacterial growth inhibition measured after 6 hrs in presence of trypsin by radial diffusion assay; assay type: functional, organism-based
Staphylococcus aureus [25] = assay: Additive antibacterial activity against multidrug-resistant Staphylococcus aureus CCARM 3089 strain assessed as oxacillin fractional inhibitory concentration by checkerboard assay; assay type: functional
Cell membrane [26] = assay: Induction of outer membrane permeabilization in Escherichia coli KCTC 1682 assessed as increase in fluorescence intensity at 2 to 8 ug/ml by NPN staining based analysis; details: dose 2-8 µg/ml
RAW264.7 [27] = assay: Antiinflammatory activity in LPS-induced mouse RAW264.7 cells assessed as reduction in TNF alpha mRNA expression level at 20 ug/ml measured after 18 hrs by RT-PCR assay relative to control; assay type: functional, cell-based; details: dose 20.0 µg/ml
Escherichia coli [28] = assay: Antibacterial activity against Escherichia coli KCTC 1682 strain assessed as bacterial growth inhibition measured at 18 to 24 hrs in presence of 150 mM NaCl by microdilution assay; assay type: functional; details: time 18-24 hrs
Staphylococcus aureus [29] = assay: Synergistic antibacterial activity against methicillin-resistant Staphylococcus aureus CCARM 3089 strain assessed as ciprofloxacin MIC by checkerboard assay; assay type: functional
Pseudomonas aeruginosa [30] = assay: Synergistic antibacterial activity against multidrug-resistant Pseudomonas aeruginosa CCARM 2095 strain assessed as oxacillin fractional inhibitory concentration in presence of oxacillin by checkerboard assay; assay type: functional
Pseudomonas aeruginosa [31] = assay: Synergistic antibacterial activity against multidrug-resistant Pseudomonas aeruginosa CCARM 2095 strain assessed as oxacillin fractional inhibitory concentration by checkerboard assay; assay type: functional
Staphylococcus aureus [32] = assay: Synergistic antibacterial activity against methicillin-resistant Staphylococcus aureus CCARM 3089 strain assessed as bacterial growth inhibition in presence of ciprofloxacin by checkerboard assay; assay type: functional
Pseudomonas aeruginosa [33] = assay: Synergistic antibacterial activity against multidrug-resistant Pseudomonas aeruginosa CCARM 2095 strain assessed as fractional inhibitory concentration index in presence of chloramphenicol by checkerboard assay; assay type: functional
Pseudomonas aeruginosa [34] = assay: Synergistic antibacterial activity against multidrug-resistant Pseudomonas aeruginosa CCARM 2095 strain assessed as bacterial growth inhibition in presence of chloramphenicol by checkerboard assay; assay type: functional
Pseudomonas aeruginosa [35] = assay: Synergistic antibacterial activity against multidrug-resistant Pseudomonas aeruginosa CCARM 2095 strain assessed as fractional inhibitory concentration index in presence of oxacillin by checkerboard assay; assay type: functional
Pseudomonas aeruginosa [36] = assay: Synergistic antibacterial activity against multidrug-resistant Pseudomonas aeruginosa CCARM 2095 strain assessed as bacterial growth inhibition by checkerboard assay; assay type: functional
Pseudomonas aeruginosa [37] = assay: Synergistic antibacterial activity against multidrug-resistant Pseudomonas aeruginosa CCARM 2095 strain assessed as chloramphenicol MIC by checkerboard assay; assay type: functional

Compound	MIC (Escherichia coli [1]) [µM]	MIC (Escherichia coli [2]) [µM]	Activity (Cell membrane [3])	MIC [5] [µM]	MIC (Staphylococcus aureus [6]) [µM]	inhibition at 20 µg/mL (RAW264.7 [8]) [%]	MIC (Staphylococcus aureus [9]) [µM]	Flu intensity (Cell membrane [10]) [%]	Activity (RAW264.7 [11])	Activity (Escherichia coli [13])	MIC (Staphylococcus aureus [14]) [µg/mL]	MIC (Escherichia coli [17]) [µM]	MIC (Staphylococcus aureus [18]) [µM]	MIC (Pseudomonas aeruginosa [19]) [µM]	MIC (Escherichia coli [21]) [µM]	Activity (DNA)	MIC (Staphylococcus aureus [23]) [µM]	Activity (Escherichia coli [24])	Activity (Cell membrane [26])	Activity (RAW264.7 [27])	further results
NCCNc1nc(NCCN)nc(N2CC(Cc3ccccc3)N(c3nc(NCCN)nc(NCCN)n3)CC2Cc2ccccc2)n1 (stereo not drawn)	6.1 (≈ 4.01 µg/mL)	12.2	inactive	6.1 (≈ 4.01 µg/mL)	6.1	72.4	6.1	8.57	Active	Active	32	6.1	6.1	24.3 (≈ 16 µg/mL)	6.1	Active	12.2	Active	inactive	Active	fractional inhibitory concentration index (FICI) (Staphylococcus aureus [4]): 0.5; FIC (Staphylococcus aureus [7]): 0.25; MIC (Staphylococcus aureus [12]): 8 µg/mL; fractional inhibitory concentration index (FICI) (Pseudomonas aeruginosa [15]): 0.5; fractional inhibitory concentration index (FICI) (Staphylococcus aureus [16]): 0.5; MIC (Pseudomonas aeruginosa [20]): 256 µg/mL; MIC (Staphylococcus aureus [22]): 128 µg/mL; FIC (Staphylococcus aureus [25]): 0.25; MIC (Escherichia coli [28]): 6.1 µM
NCCN(CCN)c1nc(NCc2ccccc2)nc(N2CC(Cc3ccccc3)N(c3nc(NCc4ccccc4)nc(N(CCN)CCN)n3)CC2Cc2ccccc2)n1 (stereo not drawn)	5.4 (≈ 4.52 µg/mL)	5.4	inactive	2.7 (≈ 2.26 µg/mL)	5.4	95.6	5.4	10.5	Active	Active	4	5.4	5.4	10.7 (≈ 8.96 µg/mL)	10.8	Active	10.8	Active	inactive	Active	fractional inhibitory concentration index (FICI) (Staphylococcus aureus [4]): 0.5; MIC (Staphylococcus aureus [29]): 64 µg/mL; FIC (Pseudomonas aeruginosa [30]): 0.25; FIC (Staphylococcus aureus [7]): 0.25; FIC (Pseudomonas aeruginosa [31]): 0.125; MIC (Staphylococcus aureus [32]): 1 µg/mL; fractional inhibitory concentration index (FICI) (Pseudomonas aeruginosa [33]): 0.5; MIC (Staphylococcus aureus [12]): 1 µg/mL; fractional inhibitory concentration index (FICI) (Pseudomonas aeruginosa [15]): 0.375; MIC (Pseudomonas aeruginosa [34]): 4 µg/mL; fractional inhibitory concentration index (FICI) (Staphylococcus aureus [16]): 0.5; fractional inhibitory concentration index (FICI) (Pseudomonas aeruginosa [35]): 0.375; MIC (Pseudomonas aeruginosa [36]): 16 µg/mL; MIC (Pseudomonas aeruginosa [20]): 256 µg/mL; MIC (Pseudomonas aeruginosa [37]): 256 µg/mL; FIC (Staphylococcus aureus [25]): 0.25; MIC (Escherichia coli [28]): 5.4 µM
NCCCN(CCCN)c1nc(NCc2ccccc2)nc(N2CC(Cc3ccccc3)N(c3nc(NCc4ccccc4)nc(N(CCCN)CCCN)n3)CC2Cc2ccccc2)n1 (stereo not drawn)	5 (≈ 4.47 µg/mL)	10	inactive	5 (≈ 4.47 µg/mL)	2.5	95.4	2.5	3.03	Active	Active	4	5	5	10 (≈ 8.93 µg/mL)	5	Active	10	Active	inactive	Active	fractional inhibitory concentration index (FICI) (Staphylococcus aureus [4]): 0.375; MIC (Staphylococcus aureus [29]): 64 µg/mL; FIC (Pseudomonas aeruginosa [30]): 0.25; FIC (Staphylococcus aureus [7]): 0.25; FIC (Pseudomonas aeruginosa [31]): 0.25; MIC (Staphylococcus aureus [32]): 1 µg/mL; fractional inhibitory concentration index (FICI) (Pseudomonas aeruginosa [33]): 0.375; MIC (Staphylococcus aureus [12]): 1 µg/mL; fractional inhibitory concentration index (FICI) (Pseudomonas aeruginosa [15]): 0.312; MIC (Pseudomonas aeruginosa [34]): 4 µg/mL; fractional inhibitory concentration index (FICI) (Staphylococcus aureus [16]): 0.375; fractional inhibitory concentration index (FICI) (Pseudomonas aeruginosa [35]): 0.5; MIC (Pseudomonas aeruginosa [36]): 16 µg/mL; MIC (Pseudomonas aeruginosa [20]): 64 µg/mL; MIC (Pseudomonas aeruginosa [37]): 128 µg/mL; FIC (Staphylococcus aureus [25]): 0.125; MIC (Escherichia coli [28]): 2.5 µM
NCCCCNc1nc(NCCCCN)nc(N2CC(Cc3ccccc3)N(c3nc(NCCCCN)nc(NCCCCN)n3)CC2Cc2ccccc2)n1 (stereo not drawn)	10.4 (≈ 8 µg/mL)	10.4	inactive	5.2 (≈ 4 µg/mL)	5.2	97.2	5.2	6.03	Active	Active	4	10.4	10.4	10.4 (≈ 8 µg/mL)	10.4	Active	10.4	Active	inactive	Active	fractional inhibitory concentration index (FICI) (Staphylococcus aureus [4]): 0.5; MIC (Staphylococcus aureus [29]): 64 µg/mL; FIC (Pseudomonas aeruginosa [30]): 0.25; FIC (Staphylococcus aureus [7]): 0.25; FIC (Pseudomonas aeruginosa [31]): 0.25; MIC (Staphylococcus aureus [32]): 1 µg/mL; fractional inhibitory concentration index (FICI) (Pseudomonas aeruginosa [33]): 0.375; MIC (Staphylococcus aureus [12]): 1 µg/mL; fractional inhibitory concentration index (FICI) (Pseudomonas aeruginosa [15]): 0.375; MIC (Pseudomonas aeruginosa [34]): 8 µg/mL; fractional inhibitory concentration index (FICI) (Staphylococcus aureus [16]): 0.5; fractional inhibitory concentration index (FICI) (Pseudomonas aeruginosa [35]): 0.5; MIC (Pseudomonas aeruginosa [36]): 32 µg/mL; MIC (Pseudomonas aeruginosa [20]): 128 µg/mL; MIC (Staphylococcus aureus [22]): 64 µg/mL; MIC (Pseudomonas aeruginosa [37]): 128 µg/mL; FIC (Staphylococcus aureus [25]): 0.25; MIC (Escherichia coli [28]): 10.4 µM
N=C(N)NCCNc1nc(NCCNC(=N)N)nc(N2CC(Cc3ccccc3)N(c3nc(NCCNC(=N)N)nc(NCCNC(=N)N)n3)CC2Cc2ccccc2)n1 (stereo not drawn)	17.7 (≈ 14.6 µg/mL)	9.7	inactive	4.8 (≈ 3.96 µg/mL)	4.8	99.8	4.8	2.55	Active	Active	8	9.7	9.6	19.4 (≈ 16 µg/mL)	9.7	Active	9.6	Active	inactive	Active	MIC (Staphylococcus aureus [22]): 128 µg/mL; MIC (Escherichia coli [28]): 9.7 µM
